According to US20120004137A1, “IDENTIFICATION OF NUCLEIC ACID DELIVERY VEHICLES USING DNA DISPLAY” (X-Body, Inc., priority 2009, published 2012):
Ends that are not written are not given here. * marks the point of attachment. Biotin = O=C1N[C@H]2[C@H](CS[C@H]2CCCCC(=O)*)N1

System: HEK293T cells
Test: Transfection-independent cytoplasmic entry, T7 RNAP RT-PCR assay
Type: cell-based
Settings: 40 pmol biotin:streptavidin dsDNA-SA-peptide assembly added without transfection reagent to HEK293T cells transiently transfected with T7_pEF/myc/cyto; lysed 18 hours later; FIG. 14 bottom panel
Method: To determine if cytoplasmic T7 would be active as a polymerase in mammalian cells, we developed a transient transfection assay in HEK293T cells (FIG. 5). Cells were seeded in 24-well dishes at 350,000 cells/well and then incubated overnight in Eagle's Minimum Essential Medium supplemented with 10% fetal bovine serum (FBS). A DNA template containing the T7 promoter upstream of the coding region of a VH antibody domain was prepared by PCR as follows. VH DNA from a naïve human VH library was PCR amplified (Strategene 600312) with a 5′ oligo coding for in vitro transcription and translation signal T7TMV (5′-TAATACG […]-3′; SEQ ID NO: 3)) and a 3′ oligo annealing to the C-terminal VH DNA Cmu and SA linker region, Y15 (5′-[…]-3′; SEQ ID NO: 4). The PCR product was gel purified. […] This specific RNA is then detected and amplified by RT-PCR. […]
For the cytoplasmic entry selections to be successful, biotin-streptavidin assemblies of oligonucleotide and encoded peptide or protein must be competent as T7 polymerase templates. To test whether a complex of biotinylated peptide or VH binder assembled with streptavidin can be transfected into cells, transcribed by T7 RNAP, and detected by RT-PCR, the above VH DNA was modified to carry both SP6 and T7 promoter sequences at the 5′ end (5′-[…]-3′; SEQ ID NO: 9) and Cmu-flag-SA-polyA sequence at the 3′ end (FIG. 12). […]

In the case of Biotin-YGRKKRRQRRR [TAT], the “cellular uptake / RT-PCR activity as a result of cytoplasmic T7 polymerase activity” value is reported as “cellular uptake of the peptide assemblies occurs”.
Biotin-KKWKMRRNQFWVKVQRG [ANT] was tested, and the “cellular uptake / RT-PCR activity as a result of cytoplasmic T7 polymerase activity” value was “cellular uptake of the peptide assemblies occurs”.
